Data from publication PMC2877487 (Bioorganic & medicinal chemistry letters, 2009).
Like-named read-outs stand apart in the source and are kept apart here.

Assays:
[1] = Stability by HPLC peak area decrease, first order decay half-life; assay type: physicochemical; settings: culture media, First order decay half-life (t1/2)
[2] = buffer; cited from earlier work

| Compound | half-life [1] | half-life [2] |
| --- | --- | --- |
| C[C@@]12c3ccc4c(c3C(=O)c3occ(c31)C(=O)C[C@H]2OC(=O)CCC(=O)O)CCC4=O [SA-Dmv] | < 1 min |  |
| COC[C@H]1OC(=O)c2coc3c2[C@@]1(C)C1=C(C3=O)[C@@H]2CCC(=O)[C@@]2(C)C[C@H]1OC(C)=O [Wm, wortmannin] | < 1 min | 57.8 h |
